Source: article PMC8760490, “Discovery of novel furanylbenzamide inhibitors that target oncogenic tyrosine phosphatase SHP2 in leukemia cells” (The Journal of Biological Chemistry, 2021)
Read-outs that look alike come from different tables or passages of the source.

How the values were obtained:
[1] = system: Kasumi-1 acute myeloid leukemia (AML) cells; test: Cell viability (CellTiter-Glo), Kasumi-1; format: cell-based; settings: for effect on Kasumi-1 cell growth: various concentrations, 3 days
Protocol: (§1) Inhibition of SHP2 has been reported to inhibit the growth of cancer cells including Kasumi-1 acute myeloid leukemia (AML) and KYSE-520 esophageal cancer cells ([30]). […] Thus, we treated two TNBC cell lines, BT-549 and MDA-MB-468, with SBI-4668 or the SHP2 allosteric inhibitor SHP099 at various concentrations and determined cell viability after 72 h, compared with the vehicle control (Fig. 4C). […] Next, we performed an 11-day colony formation assay with TNBC cells treated with SBI-4668 or SHP099 at 5, 10, or 20 μM (Fig. 4D).
(§2) Viability of AML and esophageal carcinoma cells was assessed using the ATP-depletion assay CellTiter-Glo (Promega). Cells were harvested at 1 × 10^6/ml to 2 × 10^6 cells/ml with cell numbers determined by trypan blue using the Countess Cell counter (Thermo Scientific) and resuspended in culture media. About 3000 cells (in 20 μl) were seeded in a 384-well format white and clear-bottom microplate (catalog no.: 781098; Greiner) spotted with test compound or vehicle control (DMSO) using an Echo 555 Liquid Handler. Cells were incubated for 3 days, before 10 μl of CellTiter-Glo reagent mix was added to each well and incubated for 10 min at RT. Luminescence was read on a Tecan Spark Multimode Microplate Reader, and data were analyzed using GraphPad Prism software.

[2] = system: KYSE-520 esophageal cancer cells; test: Cell viability (CellTiter-Glo), KYSE-520; format: cell-based; settings: for effect on KYSE-520 cell growth: various concentrations, 3 days
Protocol: as §1, §2

[3] = target: T1, full-length SHP2 WT (SHP2-WT) (Homo sapiens, UniProt Q06124); test: DiFMUP fluorescence phosphatase inhibition assay, SHP2-WT activated with IRS-1 peptide; format: biochemical; settings: DiFMUP at Km (60 μM), pH 6.0
T1 construct: Recombinant human full-length SHP2 (1–594) WT and E76K mutants; made in house
Excerpt: (§3) To test the synthesized compounds for their potential to inhibit SHP2 activity, a fluorescence intensity-based assay using 6,8-difluoro-4-methylumbelliferyl phosphate (DiFMUP) as the substrate was adapted for three recombinant SHP2 constructs: (1) the SHP2 catalytic domain (SHP2cat; residues 248–527), (2) the full-length SHP2-E76K oncogenic mutant, and (3) the full-length SHP2 WT (SHP2-WT). The recombinant SHP2 proteins were expressed and purified as described previously ([36]). A dually phosphorylated peptide derived from the insulin receptor substrate 1 (IRS-1) served as a surrogate binding protein and was used to activate SHP2-WT ([30], [36]). […] Michaelis–Menten experiments to determine the DiFMUP Michaelis–Menten constant (Km) for each SHP2 construct were performed as described previously ([36]) and yielded the following values: SHP2-WT, Km = 60 μM; SHP2-E76K, Km = 20 μM; and SHP2cat, Km = 20 μM. Relative maximum rates (Vmax) of the DiFMUP reactions expressed as relative fluorescence units per minute (RFU/min) were as follows: SHP2-WT, Vmax = 871 RFU/min; SHP2-E76K, Vmax = 2730 RFU/min; and SHP2cat, Vmax = 2912 RFU/min. IC50 values for each compound were determined from initial rates in 10-point dose–response assays using DiFMUP at a concentration corresponding to its Km value for the respective SHP2 construct. […] Replacements for the benzothiophenone were explored using analog #10.
(§4) Recombinant human full-length SHP2 (1–594) WT and E76K mutants, as well as the SHP2cat (248–527), were expressed and purified as described before ([36], [41]). Recombinant human PTP1B (1–300) and the codon-optimized STEP (280–566) catalytic domains were cloned into PET-15b and expressed as N-His-tagged fusion proteins. For expression, transformed BL21(DE3) cells were grown and induced similar as described for SHP2. Collected cells were resuspended in lysis buffer (25 mM Tris, pH 7.5, 300 mM NaCl, 50 mM imidazole, and 10% glycerol) with 100 mg/l RNaseA and were lysed with two passages using a microfluidizer. The lysate was clarified by centrifugation at 15,000g for 50 min and applied to nickel–nitrilotriacetic acid resin. The column resin was washed, and the PTP1B or STEP protein was eluted in lysis buffer at 300 mM imidazole. The PTP1B or STEP protein was further purified by S75 size-exclusion chromatography in 50 mM Tris, pH 7.5, 50 mM NaCl. The eluted peak fractions were supplemented with tris(2-carboxyethyl)phosphine to 10 mM, concentrated by ultrafiltration, and stored at −80 °C. The purified yield of PTP1B was 33 mg/l cell culture; the yield of STEP was 16 mg/l cell culture.
(§5) SHP2 inhibitors were tested at RT in a 384-well plate format standard phosphatase fluorescence intensity assay using DiFMUP (Invitrogen/Thermo Fisher Scientific) as a substrate and a total reaction volume of 25 μl. SHP2 inhibitors or vehicle (DMSO) were spotted in triplicate into a black Greiner FLUOTRAC 200 384-well microplate (catalog no.: 781076; Greiner) for a 10-point dose–response assay using an Echo 555 Liquid Handler (Labcyte, Inc). PTP working solutions were prepared at a 0.625 nM concentration (for a final concentration of 0.5 nM) in buffer containing 50 mM Bis–Tris, pH 6.0, 50 mM NaCl, 5 mM DTT, and 0.01% Tween-20. Prior to the assay, a dually phosphorylated IRS-1 peptide (625 nM [500 nM final] ([30])) was added to full-length WT SHP2 working solutions and incubated for 20 min. DiFMUP working solutions at 5× final concentration were prepared in 50 mM Bis–Tris, pH 6.0, 50 mM NaCl, and 0.01% Tween-20. About 20 μl of PTP working solution was dispensed into the microplate and incubated with inhibitor for 20 min at RT. […] The reaction was initiated by addition of 5 μl DiFMUP working solutions. Fluorescence intensity was measured in kinetic mode (every minute for 7 or 10 min) using a Tecan Spark Multimode Microplate Reader (Tecan) with an excitation wavelength of 360 nm and an emission wavelength of 460 nm. […]

[4] = target: T2, SHP2 catalytic domain (SHP2cat; residues 248–527) (Homo sapiens, UniProt Q06124); test: DiFMUP fluorescence phosphatase inhibition assay, SHP2cat; format: biochemical
T2 construct: the SHP2 catalytic domain (SHP2cat; residues 248–527); made in house
T2 sequence (Q06124 248-527): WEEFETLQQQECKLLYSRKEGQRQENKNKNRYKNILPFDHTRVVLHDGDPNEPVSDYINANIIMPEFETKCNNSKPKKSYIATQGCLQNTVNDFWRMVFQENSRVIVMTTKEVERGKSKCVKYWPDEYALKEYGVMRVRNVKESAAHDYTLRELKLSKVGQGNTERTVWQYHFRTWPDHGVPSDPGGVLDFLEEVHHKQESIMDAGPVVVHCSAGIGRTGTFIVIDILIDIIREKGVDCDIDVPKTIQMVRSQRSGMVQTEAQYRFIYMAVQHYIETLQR
Excerpt: as §3, §4, §5

[5] = DiFMUP at Km (20 μM), pH 6.0, read-out: SHP2cat, IC50
[6] = catalytic domain, DiFMUP at Km, read-out: SHP2 IC50 (Table 2)

Compound	IC50 [3] [µM]	IC50 [4, 5] [µM]	IC50 [4, 6] [µM]	effect on Kasumi-1 cell growth [1]	effect on KYSE-520 cell growth [2]	IC50 ([1]; Homo sapiens, Kasumi 1, 72 h, 3 days in culture) [µM]	IC50 ([2]; Homo sapiens, KYSE-520, 72 h, 3 days in culture) [µM]
Nc1ccc(NC(=O)c2cc(-c3ccc(/C=C4\Sc5ccccc5C4=O)o3)ccc2O)cc1 [SBI-2130, (Z)-N-(4-Aminophenyl)-2-hydroxy-5-(5-((3-oxobenzo[b]thiophen-2(3H)-ylidene)methyl)furan-2-yl)benzamide]	5	0.22	0.22	dose-dependently inhibited cancer cell growth	dose-dependently inhibited cancer cell growth		
O=C1CCCC1=Cc1ccc(-c2ccc(O)c(C(=O)Nc3ccccc3)c2)o1 [SBI-3192, 2-Hydroxy-5-(5-((2-oxocyclopentylidene)methyl)furan-2-yl)-N-phenylbenzamide]	4.1	1.1	1.1				
O=C(Nc1ccccc1)c1cc(-c2ccc(/C=C3\Sc4ccccc4C3=O)o2)ccc1O [SBI-4668, (Z)-2-Hydroxy-5-(5-((3-oxobenzo[b]thiophen-2(3H)-ylidene)methyl)furan-2-yl)-N-phenylbenzamide]	15	0.73	0.73	dose-dependently inhibited cancer cell growth	dose-dependently inhibited cancer cell growth	8.5	5.4

More lines, main results first:

IC50 [3] [µM]	IC50 [4, 5] [µM]	IC50 [4, 6] [µM]	Compound	effect on Kasumi-1 cell growth [1]	effect on KYSE-520 cell growth [2]	IC50 ([1]; Homo sapiens, Kasumi 1, 72 h, 3 days in culture) [µM]	IC50 ([2]; Homo sapiens, KYSE-520, 72 h, 3 days in culture) [µM]
11	1.4	1.4	N#Cc1cc(-c2ccc(/C=C3\Sc4ccccc4C3=O)o2)ccc1O [SBI-3404, (Z)-2-Hydroxy-5-(5-((3-oxobenzo[b]thiophen-2(3H)-ylidene)methyl)furan-2-yl)benzonitrile]	dose-dependently inhibited cancer cell growth	dose-dependently inhibited cancer cell growth		
4.2	2	2	O=C1/C(=C/c2ccc(-c3ccc(O)c(-c4nn[nH]n4)c3)o2)Sc2ccccc21 [SBI-3405, (Z)-2-((5-(4-Hydroxy-3-(2H-tetrazol-5-yl)phenyl)furan-2-yl)methylene)benzo[b]thiophen-3(2H)-one]				
